Columns and labels:
[1] = tested on: human ovarian (SKOV-3) cancer cell line; experiment: MTT cytotoxicity assay, SKOV-3; format: cell-based; settings: for IC50: Homo sapiens, SK-OV-3, 72 h, six concentrations, mean ± SD of three independent experiments; for IC50 / cytotoxic activity against SKOV-3 cell line (in words): MTT
Description: (§1) To establish a SAR of the C-3 (R2) and C-23 (R1) of the AA derivatives, new compounds were subjected to MTT assays to evaluate their in-vitro antiproliferative activities against ovarian (SKOV-3) and colon (HCT-116) cancer cell lines, the IC50 values (the concentration that inhibits 50% of cell growth) of which are summarized in Table 1. Doxorubicin was used as the positive drug.
(§2) HCT116, SKOV-3, A549, A2780, HepG2, HL-60 and MCF-7 cells were incubated in DMEM with 10% heat-inactivated FBS in a humidified atmosphere of 5.0% CO2 at 37 °C. The in-vitro cytotoxicity of AA derivatives was determined using MTT assay. A 100-μL volume of culture medium at a concentration of 3 × 10^4 cell/mL was added to 96-well plate wells, which were maintained in a humidified atmosphere of 5.0% CO2 at 37 °C. After 24 h, 10 μL solution of AA derivatives and doxorubicin dissolved in DMSO and phophate buffered saline (PBS) and then diluted with DMEM under a concentration gradient, was added in the wells for final concentrations of 100, 10, 1, 0.1, 0.01, 0.001 μM of compounds in HCT116 and SKOV-3 cells and 125, 25, 5, 1, 0.2, 0.04 μM in A549, A2780, HepG2, HL-60 and MCF-7 cells. After 72 h incubation in a humidified atmosphere of 5.0% CO2 at 37 °C, 20 μl MTT solution (5 mg/mL) was added into each well and the cells were incubated. After 4 h, 100 μL HCl aqueous solution (0.01 M) with 10% SDS and 5% isobutanol was added into each well to dissolve the precipitated formazan and the absorbance was read at 570 nm on Thermo Scientific Varioskan Flash plate reader. All IC50 values were averaged from three independent experiments.

[2] = tested on: human colon (HCT-116) cancer cell line; experiment: MTT cytotoxicity assay, HCT116; format: cell-based; settings: for IC50: Homo sapiens, HCT-116, 72 h, six concentrations, mean ± SD of three independent experiments
Description: as §1, §2

Question: How did the IC50 [1] turn out when C#CCNC(=O)[C@@]1(C)[C@@H]2CC[C@]3(C)[C@H](CC=C4[C@@H]5[C@@H](C)[C@H](C)CC[C@]5(C(=O)NCc5ccccc5)CC[C@]43C)[C@@]2(C)C[C@@H](OC)[C@@H]1OC(C)=O [Compound 14e, α-Methoxy-3β-Acetoxy-Urs-12-Ene-28-Benzyl Amide-23-Propargylamide] was run?
Answer: > 100 µM

Question: And the IC50 ([2]; MTT)?
Answer: > 100 µM

Question: With COC(=O)[C@@]1(C)[C@@H]2CC[C@]3(C)[C@H](CC=C4[C@@H]5[C@@H](C)[C@H](C)CC[C@]5(C(=O)NCc5ccccc5)CC[C@]43C)[C@@]2(C)C[C@@H](OC)[C@@H]1O [Compound 9, α-Methoxy-3β-Hydroxy-Urs-12-Ene-28-Benzylamide-23-Methyl Ester] as the molecule, how does the IC50 [1] read?
Answer: 6.81 ± 3.87 µM

Question: And the “fold more active than AA against SKOV-3 cell line” value ([1]; relative to AA)?
Answer: 3 fold

Question: And the IC50 ([2]; MTT)?
Answer: 3.07 ± 1.48 µM

Question: And the “fold more active than AA against HCT116 cell line” value ([2]; relative to AA)?
Answer: 8 fold

Question: CO[C@@H]1C[C@@]2(C)[C@@H](CC[C@]3(C)[C@@H]2CC=C2[C@@H]4[C@@H](C)[C@H](C)CC[C@]4(C(=O)NCc4ccccc4)CC[C@]23C)[C@](C)(C(=O)O)[C@H]1O [Compound 7, α-Methoxy-3β-Hydroxy-Urs-12-Ene-28-Benzylamide-23-Oic Acid] was tested. Which IC50 [1] did it give?
Answer: 31.9 ± 2.59 µM

Question: What about the IC50 ([2]; MTT) of the same molecule?
Answer: 16.7 ± 1.68 µM

Question: COC(=O)C(C)NC(=O)C1(C)C(OC(C)=O)C(OC)CC2(C)C1CCC1(C)C2CC=C2C3C(C)C(C)CCC3(C(=O)NCc3ccccc3)CCC21C [Compound 14f, N-(2α-Methoxy-3β-Acetoxy-Urs-12-Ene-28-Benzylamide-23-oyl)-L-Alanine Methyl Ester] was tested. Which IC50 [1] did it give?
Answer: > 100 µM

Question: What about the IC50 ([2]; MTT) of the same molecule?
Answer: > 50 µM

Question: With CO[C@@H]1C[C@@]2(C)[C@@H](CC[C@]3(C)[C@@H]2CC=C2[C@@H]4[C@@H](C)[C@H](C)CC[C@]4(C(=O)NCc4ccccc4)CC[C@]23C)[C@](C)(C(=O)N(C)C)[C@H]1O [Compound 13j, α-Methoxy-3β-Hydroxy-Urs-12-Ene-28-Benzyl Amide-23-Dimethylamide] as the molecule, how does the IC50 ([2]; MTT) read?
Answer: 9.6 ± 4.58 µM

Question: What does the source list for C#CCNC(=O)[C@@]1(C)[C@@H]2CC[C@]3(C)[C@H](CC=C4[C@@H]5[C@@H](C)[C@H](C)CC[C@]5(C(=O)NCc5ccccc5)CC[C@]43C)[C@@]2(C)C[C@@H](OC)[C@@H]1O [Compound 13e, α-Methoxy-3β-Hydroxy-Urs-12-Ene-28-Benzyl Amide-23-Propargylamide]?
Answer: IC50 [1]: 6.72 ± 4.32 µM; IC50 ([2]; MTT): 8.03 ± 2.79 µM

Question: For CCOC(=O)CCCNC(=O)[C@@]1(C)[C@@H]2CC[C@]3(C)[C@H](CC=C4[C@@H]5[C@@H](C)[C@H](C)CC[C@]5(C(=O)NCc5ccccc5)CC[C@]43C)[C@@]2(C)C[C@@H](OC)[C@@H]1O [Compound 13i, N-(2α-Methoxy-3β-Hydroxy-Urs-12-Ene-28-Benzylamide-23-Oyl)-4-Aminobutyric Ethyl Ester], which IC50 ([2]; MTT) is on record?
Answer: 15.2 ± 1.99 µM

Question: For COC(=O)[C@]1(C)C(=O)[C@H](OC)C[C@]2(C)[C@H]3CC=C4[C@@H]5[C@@H](C)[C@H](C)CC[C@]5(C(=O)NCc5ccccc5)CC[C@@]4(C)[C@]3(C)CC[C@@H]12 [Compound 11, α-Methoxy-3-Oxo-Urs-12-Ene-28-Benzyl Amide-23-Methyl Ester], which IC50 [1] is on record?
Answer: > 100 µM

Question: What about the “cytotoxic activity against SKOV-3 cell line (in words)” value [1] of the same molecule?
Answer: lost activity

Question: And the IC50 ([2]; MTT)?
Answer: > 100 µM

Question: What about the “cytotoxic activity against HCT116 cell line (in words)” value ([2]; MTT) of the same molecule?
Answer: lost activity

Question: COC(=O)C(NC(=O)C1(C)C(O)C(OC)CC2(C)C1CCC1(C)C2CC=C2C3C(C)C(C)CCC3(C(=O)NCc3ccccc3)CCC21C)C(C)C [Compound 13g, N-(2α-Methoxy-3β-Hydroxy-Urs-12-Ene-28-Benzylamide-23-Oyl)-L-Valine Methyl Ester] was tested. Which IC50 ([2]; MTT) did it give?
Answer: 9.69 ± 1.64 µM

Question: COC(=O)C(Cc1ccccc1)NC(=O)C1(C)C(O)C(OC)CC2(C)C1CCC1(C)C2CC=C2C3C(C)C(C)CCC3(C(=O)NCc3ccccc3)CCC21C [Compound 13h, N-(2α-Methoxy-3β-Hydroxy-Urs-12-Ene-28-Benzylamide-23-oyl)-L-Phenylalanine Methyl Ester] was tested. Which IC50 [1] did it give?
Answer: > 100 µM

Question: What about the “cytotoxic activity against SKOV-3 cell line (in words)” value [1] of the same molecule?
Answer: not active

Question: What about the IC50 ([2]; MTT) of the same molecule?
Answer: > 50 µM

Question: With CO[C@@H]1C[C@]2(C)[C@H]3CC=C4[C@@H]5[C@@H](C)[C@H](C)CC[C@]5(C(=O)NCc5ccccc5)CC[C@@]4(C)[C@]3(C)CC[C@H]2[C@](C)(C=O)[C@H]1O [Compound 6, α-Methoxy-3β-Hydroxy-23-Oxo-Urs-12-Ene-28-Benzylamide] as the molecule, how does the IC50 ([2]; MTT) read?
Answer: 8.46 ± 1.64 µM

Question: Which results are given for CCNC(=O)[C@@]1(C)[C@@H]2CC[C@]3(C)[C@H](CC=C4[C@@H]5[C@@H](C)[C@H](C)CC[C@]5(C(=O)NCc5ccccc5)CC[C@]43C)[C@@]2(C)C[C@@H](OC)[C@@H]1OC(C)=O [Compound 14c, α-Methoxy-3β-Acetoxy-Urs-12-Ene-28-Benzyl Amide-23-Ethylamide]?
Answer: IC50 [1]: > 100 µM; IC50 ([2]; MTT): > 100 µM

Question: How did the IC50 ([2]; MTT) turn out when CNC(=O)[C@@]1(C)[C@@H]2CC[C@]3(C)[C@H](CC=C4[C@@H]5[C@@H](C)[C@H](C)CC[C@]5(C(=O)NCc5ccccc5)CC[C@]43C)[C@@]2(C)C[C@@H](OC)[C@@H]1OC(C)=O [Compound 14b, α-Methoxy-3β-Acetoxy-Urs-12-Ene-28-Benzyl Amide-23-Methylamide] was run?
Answer: 34.2 ± 7.87 µM

Question: COc1cccc2c1C(=O)c1c(O)c3c(c(O)c1C2=O)C[C@@](O)(C(=O)CO)C[C@@H]3O[C@H]1C[C@H](N)[C@H](O)[C@H](C)O1 [Doxorubicin, reference compound] was tested. Which IC50 [1] did it give?
Answer: 0.08 ± 0.01 µM

Question: What about the IC50 ([2]; MTT) of the same molecule?
Answer: 0.03 ± 0.02 µM

Question: How did the IC50 [1] turn out when COC(=O)C(Cc1ccccc1)NC(=O)C1(C)C(OC(C)=O)C(OC)CC2(C)C1CCC1(C)C2CC=C2C3C(C)C(C)CCC3(C(=O)NCc3ccccc3)CCC21C [Compound 14h, N-(2α-Methoxy-3β-Acetoxy-Urs-12-Ene-28-Benzylamide-23-Oyl)-L-Phenylalanine Methyl Ester] was run?
Answer: > 100 µM

Question: And the IC50 ([2]; MTT)?
Answer: > 100 µM

Question: With CO[C@@H]1C[C@@]2(C)[C@@H](CC[C@]3(C)[C@@H]2CC=C2[C@@H]4[C@@H](C)[C@H](C)CC[C@]4(C(=O)NCc4ccccc4)CC[C@]23C)[C@](C)(C(N)=O)[C@H]1OC(C)=O [Compound 14a, α-Methoxy-3β-Acetoxy-Urs-12-Ene-28-Benzyl Amide-23-Amide] as the molecule, how does the IC50 [1] read?
Answer: 7.12 ± 2.61 µM

Question: What about the IC50 ([2]; MTT) of the same molecule?
Answer: 6.52 ± 3.03 µM

Question: How did the IC50 ([2]; MTT) turn out when CO[C@@H]1C[C@@]2(C)[C@@H](CC[C@]3(C)[C@@H]2CC=C2[C@@H]4[C@@H](C)[C@H](C)CC[C@]4(C(=O)NCc4ccccc4)CC[C@]23C)[C@](C)(C(=O)NC(C)C)[C@H]1O [Compound 13d, α-Methoxy-3β-Hydroxy-Urs-12-Ene-28-Benzyl Amide-23-Isopropylamide] was run?
Answer: 8.57 ± 3.04 µM

Question: For CNC(=O)[C@@]1(C)[C@@H]2CC[C@]3(C)[C@H](CC=C4[C@@H]5[C@@H](C)[C@H](C)CC[C@]5(C(=O)NCc5ccccc5)CC[C@]43C)[C@@]2(C)C[C@@H](OC)[C@@H]1O [Compound 13b, α-Methoxy-3β-Hydroxy-Urs-12-Ene-28-Benzyl Amide-23-Methylamide], which IC50 ([2]; MTT) is on record?
Answer: 7.45 ± 3.53 µM

Question: CCNC(=O)[C@@]1(C)[C@@H]2CC[C@]3(C)[C@H](CC=C4[C@@H]5[C@@H](C)[C@H](C)CC[C@]5(C(=O)NCc5ccccc5)CC[C@]43C)[C@@]2(C)C[C@@H](OC)[C@@H]1O [Compound 13c, α-Methoxy-3β-Hydroxy-Urs-12-Ene-28-Benzyl Amide-23-Ethylamide] was tested. Which IC50 ([2]; MTT) did it give?
Answer: 11 ± 4.28 µM

Question: How did the IC50 ([2]; MTT) turn out when CO[C@@H]1C[C@@]2(C)[C@@H](CC[C@]3(C)[C@@H]2CC=C2[C@@H]4[C@@H](C)[C@H](C)CC[C@]4(C(=O)NCc4ccccc4)CC[C@]23C)[C@](C)(C(N)=O)[C@H]1O [Compound 13a, α-Methoxy-3β-Hydroxy-Urs-12-Ene-28-Benzyl Amide-23-Amide] was run?
Answer: 7.45 ± 1.62 µM

— article PMC7464201, “Synthesis and Cytotoxic Activity of Novel C-23-Modified Asiatic Acid Derivatives” (Molecules, 2020)
